# Literature values as cited in patent US20110135569A1, “METHOD FOR THERAPEUTIC ADMINISTRATION OF RADIONUCLEOSIDES” (Peak Biosciences Inc., priority 2007, published 2011).
# Assays:
# replicating cancer cells = details: low picomolar range, e.g. value
# [1] = human subjects; locally injected or intra-arterially infused
smiles,measurement,setting,value
"O=c1[nH]c(=O)n([C@H]2C[C@H](O)[C@@H](CO)O2)cc1[125I] [^125IUDR, 5-[^125I]-iodouridine 2′-deoxyribonucleoside]",concentration able to destroy the chromosomes of replicating cancer cells,replicating cancer cells,5 picomoles/liter
same,plasma half-life,[1],less than 5 minutes
